Here are results for one compound from patent EP0863156A1, “Peptides useful as somatostatin antagonists” (American Cyanamid Company, priority 1997, dated 1998).

Molecules are shown by their SMILES. Bridge positions count the residues as written; N and C are the ends. Square brackets hold non-standard residues; d marks the D form. Peptide text beside a SMILES is read from it.

In experiment [1] the target is T1, SSTR2 (Rattus norvegicus, UniProt P30680). Put plainly: cAMP accumulation in forskolin-stimulated GH4C1/SSTR2 cells (SPA radioimmunoassay). The class given is cell-based. Further details: expressed in transfected cells; host or cells: GH4C1 rat pituitary tumor cells. The settings on record: GH4-C1; test peptide 100 µM; percent reversal of SSTR2 activation by SRIF or MK678; 0% = forskolin plus agonist, 100% = forskolin alone; read-out: cAMP Assay Intrinsic activity. In general terms: cAMP levels reflect the balance of adenylyl cyclase and phosphodiesterase activity.
Protocol: This is the basis of a common assay for SRIF agonists and antagonists, whereby SRIF agonists reduce artificially stimulated cAMP levels, and SRIF antagonists reverse the effect of SRIF. […] This increases the response to SRIF and provides a greater dynamic range for the measurement of SRIF antagonist activity.
Stimulation of cells. GH4C1/SSTR2 cells, grown in DMEM with 10% bovine serum, are released from a tissue culture dish by incubation for several minutes at 37° C with PBS containing 0.5 mM EDTA. Cells are washed in induction buffer (PBS containing 100 µM IBMX (an inhibitor of cAMP breakdown) and 2 mM CaCl2) at room temperature, and resuspended at 2 x 10^6/mL in induction buffer. Into each well of a 96-well tray are added 50 µL of a 2 X concentration of stimulants in induction buffer. […] To initiate stimulation of the cells, 50 µL (100,000) cells are added to each well, mixed by shaking 10 seconds on a plate shaker and placed at 37° C for 15 minutes. Stimulation is arrested and cells are lysed by adding 15 µL 0.33 N HCI to each well and incubating the plate for 30 minutes at 37° C. Samples are neutralized by addition of 15 µL 0.25 N NaOH/50 mM Hepes pH 7.4. Baseline cAMP levels are determined in samples with no added forskolin or SRIF, and each treatment is performed in triplicate.
cAMP assay. To measure accumulated cAMP in the samples, a radioimmunoassay is employed. The scintillation proximity assay (SPA, Amersham, Arlington Heights, IL) allows the rapid measurement of ^125I cAMP bound to a specific antibody without separating bound radioligand from free radioligand. Each of the following reagents (15 µL) are added per well in a 96-well tray: supernatants from the cell stimulation; ^125I cAMP; SPA beads conjugated to monkey anti-rabbit IgG antibodies; and rabbit anti-cAMP antibodies. For the standard curve, known amounts of cAMP (0.2 - 12.8 pmol) are added in place of cell supernatants. The 96-well tray is sealed, shaken at room temperature overnight and measured for bound radioligand in a MicroBeta liquid scintillation counter (Wallac, Gaithersburg. MD).
The intrinsic activity of an SRIF antagonist is the percent reversal of the SSTR2 activation by SRIF or MK678, wherein 0% is defined by cAMP levels in samples treated with forskolin plus SRIF or MK678 and 100% is the cAMP level measured after treatment with forskolin alone. Therefore, increased intrinsic activity of a test compound indicates increased antagonist activity of said test compound.
An inverse agonist is a compound that is not only a pure antagonist (i.e. lacking agonist activity), but also blocks the constitutive activity of an unoccupied receptor. One indication of inverse agonist activity is the ability of a SRIF antagonist to increase cAMP levels in the absence of added SRIF.

In experiment [2] the target is T1, SSTR2. Put plainly: Competitive binding of 125I labeled S-14 to membranes of cells expressing transfected SSTR2 (SPA). Further details: expressed in transfected cells. As for the experimental part:
Membrane preparation. Tissue culture cell lines expressing transfected cDNA clones of SSTR2 and SSTR5 are used as a source of plasma membranes which specifically bind ^125I labeled S-14 (Amersham, Arlington Heights, IL). Cells are removed from culture dishes by incubation at 4°C for 5 minutes in PBS containing 1 mM EDTA, spun down (2,000 rpm, 5') and resuspended in 15 mL homogenization buffer (1 mM sodium bicarbonate pH 7.2, 1 mM EDTA, 1 mM EGTA and the following protease inhibitors: leupeptin and aprotenin at 5 µg/mL and benzamidine and bacitracin at 100 µg/mL). Cells are given 20 strokes with a Dounce homogenizer on ice and spun at 2000 rpm for 10 minutes. Membranes are isolated from the supernatant by centrifugation at 17,000 rpm for 30 minutes. The membrane pellet is washed once in 15 mL homogenization buffer and once in storage buffer (25 mM Tris pH 7.4 containing protease inhibitors). […] The membrane pellet is resuspended in storage buffer, measured for protein concentration (BioRad, CA) and stored at -80°C.
Binding assay. […] Bound radioligand is determined by counting in a Microbeta Liquid Scintillation counter (Wallac, Gaithersburg, MD). Binding data is plotted and IC50 and Ki values are calculated for test compounds using Prism software (Graphpad Software Inc., San Diego, CA) and are shown in Table V. Binding is expressed as Ki, µM.

T1 sequence (P30680 whole entry): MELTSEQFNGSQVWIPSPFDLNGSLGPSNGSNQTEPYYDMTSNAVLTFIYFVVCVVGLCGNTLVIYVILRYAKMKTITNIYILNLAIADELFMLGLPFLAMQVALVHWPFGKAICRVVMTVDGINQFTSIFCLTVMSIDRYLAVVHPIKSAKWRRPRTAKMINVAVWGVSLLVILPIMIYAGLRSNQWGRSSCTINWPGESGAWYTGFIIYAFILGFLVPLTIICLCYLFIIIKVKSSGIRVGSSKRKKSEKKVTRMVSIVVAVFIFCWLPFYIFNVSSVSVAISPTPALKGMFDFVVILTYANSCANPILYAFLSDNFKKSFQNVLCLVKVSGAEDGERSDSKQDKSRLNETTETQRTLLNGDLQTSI

For orientation: Ki means the dissociation constant of the complex between target and ligand, obtained from inhibition or displacement. A higher Ki goes with lower affinity. For the compound `CC[C@@H](C)[C@H]1NC(=O)[C@@H](Cc2ccccc2)NC(=O)[C@@H](Cc2c[nH]cn2)NC(=O)[C@@H](N)CSSC[C@@H](C(=O)O)NC(=O)[C@@H](Cc2ccccc2)NC(=O)[C@@H](Cc2c[nH]c3ccccc23)NC(=O)[C@@H](CCCNC(=N)N)NC1=O` [Peptide 34, ss C-h-f-i-r-w-f-C] (H-C[dH][dF][dI][dR][dW][dF]C-OH; disulfide 1-8), the Emax at SSTR2 [1] turned out to be 25.9%. Moreover, on SSTR2 [2], the Ki worked out at 1950 nM.
